Results as given in US20260272883A1, “SOLID STATE FORMS OF PIRTOBRUTINIB AND PROCESS FOR THE PREPARATION OF INTERMEDIATE THEREOF” (DR. REDDY'S LABORATORIES LIMITED, priority 2023, published 2026).

Experiments:
[1] = Stability of crystalline form P1 under 80% RH (open condition) and illumination (300-400 nm); type: physicochemical
[2] = Stability of crystalline form P1 at 25° C./60% RH and 40° C./75% RH for 3 months (closed conditions); type: physicochemical

COc1ccc(F)cc1C(=O)NCc1ccc(-c2nn([C@@H](C)C(F)(F)F)c(N)c2C(N)=O)cc1 [Crystalline form P1 of Pirtobrutinib, (S)-5-amino-3-(4-((5-fluoro-2-methoxybenzamido)methyl)phenyl)-1-(1,1,1-trifluoropropan-2-yl)-1H-pyrazole-4-carboxamide]
stable: Stability ([1]; high humidity and illumination conditions) | Stability ([2]; 3 months at accelerated conditions) | Stability ([2]; 40° C./75% RH for 3 months under closed conditions)
98.9%: Purity ([1]; 0 Day) | Purity ([1]; Exposure at 80% RH for 1 day (Open Condition)) | Purity ([1]; Illumination (300-400 nm) for 24 hours) | Purity ([2]; 0 Day) | Purity ([2]; 40° C./75% RH (Closed Condition) (3 months))
physically and chemically stable: Physical and chemical stability ([1]; kept at 80% RH in open condition) | Physical and chemical stability ([1]; kept under illumination (300-400 nm) for 24 hours) | Physical and chemical stability ([2]; 25° C./60% RH for 3 months under closed conditions)
98.7%: Purity ([2]; 25° C./60% RH (Closed Condition) (3 months))
